# According to the supplement of paper PMC13380429:
# Counter-ions that a name gives are not always drawn. ± gives the standard deviation of the averaged measurements.
# Assays:
# Conditions in all cases: 72 h
# Caco-2 [1] = assay: cell viability relative to DMSO; higher = less toxic
# HepG2 [2] = assay: as above
# U2OS [3] = assay: as above
# Vero E6 [4] = assay: as above
# Caco-2 [5] = assay: relative viability EC50 (midpoint between 100% and the lowest measured viability); higher = less toxic
# HepG2 [6] = assay: as above
# U2OS [7] = assay: as above
# Vero E6 [8] = assay: as above
# Caco-2 [9] = assay: drug sensitivity score (DSS) for viability; higher = more toxic; extreme values may be limits of the assay
# HepG2 [10] = assay: as above
# U2OS [11] = assay: as above
# Vero E6 [12] = assay: as above
# Calu-3 [13] = assay: cell viability relative to DMSO; higher = less toxic
# Calu-3 [14] = assay: drug sensitivity score (DSS) for viability; higher = more toxic; extreme values may be limits of the assay
SMILES,cell viability (Caco-2 [1]; 1 nM) [%],cell viability (Caco-2 [1]; 10 nM) [%],cell viability (Caco-2 [1]; 100 nM) [%],cell viability (Caco-2 [1]; 1000 nM) [%],cell viability (Caco-2 [1]; 10000 nM) [%],cell viability (HepG2 [2]; 1 nM) [%],cell viability (HepG2 [2]; 10 nM) [%],cell viability (HepG2 [2]; 100 nM) [%],cell viability (HepG2 [2]; 1000 nM) [%],cell viability (HepG2 [2]; 10000 nM) [%],cell viability (U2OS [3]; 1 nM) [%],cell viability (U2OS [3]; 10 nM) [%],cell viability (U2OS [3]; 100 nM) [%],cell viability (U2OS [3]; 1000 nM) [%],cell viability (U2OS [3]; 10000 nM) [%],cell viability (Vero E6 [4]; 1 nM) [%],cell viability (Vero E6 [4]; 10 nM) [%],cell viability (Vero E6 [4]; 100 nM) [%],cell viability (Vero E6 [4]; 1000 nM) [%],cell viability (Vero E6 [4]; 10000 nM) [%],relative viability EC50 (Caco-2 [5]) [µM],relative viability EC50 (HepG2 [6]) [µM],relative viability EC50 (U2OS [7]) [µM],relative viability EC50 (Vero E6 [8]) [µM],drug sensitivity score (Caco-2 [9]),drug sensitivity score (HepG2 [10]),drug sensitivity score (U2OS [11]),drug sensitivity score (Vero E6 [12]),cell viability (Calu-3 [13]; 1 nM) [%],cell viability (Calu-3 [13]; 10 nM) [%],cell viability (Calu-3 [13]; 100 nM) [%],cell viability (Calu-3 [13]; 1000 nM) [%],cell viability (Calu-3 [13]; 10000 nM) [%],drug sensitivity score (Calu-3 [14])
O=C(O)[C@H](O)c1ccccc1 [mandelic-acid],91.9,84.2,104,94.4,91.6,110,96.7,103,96.4,102,98.7,100,99.3,106,94.8,100,99.1,93.8,97.3,98.9,> 10,> 10,> 10,> 10,0,0,0,0,–,–,–,–,–,–
N#Cc1c(Oc2ccc(F)c(NC(=O)Cc3cccc(C(F)(F)F)c3)c2)ccc2nc(NC(=O)C3CC3)sc12 [TAK-632],100,99.4,91.8,84.9,55.6,99.9,106,85.1,29,17.2,97.9,102,94.8,99,37.8,100,106,104,79,32.3,–,0.289,3.05,1.37,3.8,14.9,3.5,6.8,105,105,110,93,61.6,3
CC(C)(C)c1cc(/C=C(\C#N)C(N)=S)cc(C(C)(C)C)c1O [tyrphostin-AG-879],99.3,94.6,96.9,93.2,50.5,93.6,94.7,104,106,27.5,98.9,98.7,98.7,98.2,65.7,97.4,97.5,94.3,100,51,–,3.56,–,–,3.8,3.6,1.8,2.6,101,97.1,99.4,91,66.8,2.9
COc1ccc(-c2oc3c(CC=C(C)C)c(O)cc(O)c3c(=O)c2O)cc1 [icaritin],–,–,–,–,–,–,–,–,–,–,–,–,–,–,–,92.9,98.9,96.7,93.3,107,–,–,–,> 10,–,–,–,0,–,–,–,–,–,–
CN(C)CCOc1ccc(/C(=C(/CCCl)c2ccccc2)c2ccccc2)cc1 [Toremifene citrate],109,98.8,93.7,96.3,60.4,110,103,104,90,68.8,106,103,105,99,87.8,99.6,99.3,99.8,97.6,91.9,–,–,> 10,> 10,2.6,2.8,0.1,0,94.1,100,88.7,90.4,57.5,3.4
Cc1cccc(C)c1NC(=O)/N=C1\CCCN1C [xilobam],–,–,–,–,–,–,–,–,–,–,–,–,–,–,–,–,–,–,–,–,–,–,–,–,–,0,0,0,–,–,–,–,–,0
COc1c(O)cc2c(c1O)[C@@H]1O[C@H](CO)[C@@H](O)[C@H](O)[C@H]1OC2=O [bergenin],80.5,106,80.2,83.1,80.5,108,79.5,98.8,88.8,96.1,96.7,97.8,95.2,97.7,97.5,106,103,103,90.5,101,> 10,> 10,> 10,> 10,4.5,0,0,0,–,–,–,–,–,–
CCN(CC)CCOC(=O)C(Cc1cccc2ccccc12)CC1CCCO1 (mixture of isomers) [naftidrofuryl],–,–,–,–,–,–,–,–,–,–,–,–,–,–,–,–,–,–,–,–,–,–,–,–,–,–,–,0.2,–,–,–,–,–,0
O=C(CCBr)N1CCN(C(=O)CCBr)CC1 [pipobroman],115,115,97.3,114,99,90.2,112,101,83.7,102,97.8,104,99.7,97.7,94,–,–,–,–,–,> 10,> 10,> 10,–,0,0,0,–,–,–,–,–,–,–
O=C(O)c1cc(=O)c2c(OCC(O)COc3cccc4oc(C(=O)O)cc(=O)c34)cccc2o1 [cromoglicic-acid],97,100,98.6,102,92.3,101,95.3,104,105,101,96.4,99.4,98.4,103,96.9,100,101,101,96.6,100,> 10,> 10,> 10,> 10,0,0,0,0,–,–,–,–,–,–
CCCCC1C(=O)N(c2ccccc2)N(c2ccccc2)C1=O [phenylbutazone],–,–,–,–,–,–,–,–,–,–,–,–,–,–,–,–,–,–,–,–,–,–,–,–,–,0,0,0,–,–,–,–,–,0
O=C(NNC(=O)c1ccc(CNS(=O)(=O)c2ccc(F)c(Cl)c2)cc1)c1ccccc1 [TCN201],109,108,99.1,99.8,103,89.3,108,97,90.7,97.7,96.3,99.8,97.7,94,96.4,104,98.5,98.4,102,102,> 10,> 10,> 10,> 10,0,0,0,0,–,–,–,–,–,–
O=C(O)c1c(Cl)c(Cl)c(Cl)c(Cl)c1-c1c2cc(I)c(=O)c(I)c-2oc2c(I)c(O)c(I)cc12 [rose-bengal],96.1 ± 5.2,93.7 ± 6.9,98.4 ± 7.9,83.3 ± 0.92,52.2 ± 6.1,98.5 ± 1.1,92.7 ± 7,102 ± 3.8,86.2 ± 5.3,61.6 ± 4.2,99.5 ± 3,101 ± 7.5,98.8 ± 0.28,92.65 ± 0.49,54 ± 5.6,97.6 ± 4,99.6,101 ± 3,90.5 ± 0.42,57.1 ± 5.8,–,–,–,–,4.6 ± 0.14,3.8 ± 0.85,3.6 ± 0.42,3.7 ± 0.42,96 ± 5.7,96.7 ± 3.9,97.2 ± 4.7,97.8 ± 12,54.4 ± 0.71,3 ± 1.4
CCc1cc2c(cc1N1CCC(N3CCOCC3)CC1)C(C)(C)c1[nH]c3cc(C#N)ccc3c1C2=O [alectinib],98.7,96.8,110,103,106,101,99.9,104,100,75.9,102,100,102,95.9,102,96,94.3,96.1,93.7,89,> 10,> 10,> 10,> 10,0,0.9,0,0,–,–,–,–,–,–
O=C(O)C(O)C(O)C(=O)O (stereo not drawn) [tartaric-acid],–,–,–,–,–,–,–,–,–,–,–,–,–,–,–,–,–,–,–,–,–,–,–,–,–,0,0,0,–,–,–,–,–,0
CS(=O)(=O)c1ccc(Oc2cc(F)cc(C#N)c2)c2c1[C@H](O)C(F)(F)C2 [PT-2385],102,94.9,88.9,86.3,95.2,103,107,97.4,97.2,104,103,97.3,98.7,100,99.4,101,99.6,100,96.9,105,> 10,> 10,> 10,> 10,1.7,0,0,0,–,–,–,–,–,–
CN[C@H]1CN(c2ccc3c(=O)c(C(=O)O)cn(-c4nccs4)c3n2)C[C@@H]1OC [voreloxin],94.1,93.2,99.9,91.6,55.1,90.7,108,88.5,72.6,29.1,100,97.6,103,98,38.3,96.9,96.2,96.7,88.1,56.1,–,1.29,2.93,–,3.7,6.9,3.6,4,101,98.9,104,85.6,58.9,4.1
N=c1ccn2c(n1)O[C@H]1[C@H](O)[C@@H](CO)O[C@H]12 [Cyclocytidine HCl],88.4,99.2,83.1,80.6,77.8,104,103,74.1,38,37.7,95.1,99.9,99.8,97.2,74.8,98.1,97.1,98.5,87.4,58.3,> 10,0.115,–,–,3.7,15,1.4,4,91.5,99.2,101,93,65.9,2.7
Cc1ccnc(NC(=O)C(C)c2cccc(C(=O)c3ccccc3)c2)c1 (stereo not drawn) [piketoprofen],96.7,87.3,91.7,93.5,91.5,103,89.3,111,107,80.8,105,102,97.7,103,95.3,98.3,98.8,99.8,106,96.1,> 10,> 10,> 10,> 10,0,0.3,0,0,–,–,–,–,–,–
